Results taken from EP2353599A1, “8-hydroxyquinolines as inhibitors of cathepsin B” (University of Ljubljana, priority 2010, dated 2011).
“Also recorded” adds a separate entry of the source.

Key:
Cathepsin B [1] = biological target: T1, Cathepsin B (Homo sapiens, UniProt P07858); test: Cathepsin B endopeptidase activity, enzyme kinetics with substrate Z-RR-AMC; assay type: biochemical; details: endopeptidase activity, substrate Z-RR-AMC, pH 6.0, 37°C
Experimental: The effect of 8-hydroxyquinolines on cathepsin B enzymatic activity was assessed using enzyme kinetics. First, the effect of 8-hydroxyquinolines on cathepsin B endopeptidase activity was assessed using the cathepsin B specific endopeptidase substrate Z-RR-AMC. 5 µl of the Z-RR-AMC (final concentration 60, 180 and 360 µM) and 5 µl of respective compound at increasing concentrations were added to wells of a black microplate. 90 µl of human recombinant cathepsin B was then added to a final concentration of 0.4 nM in activation buffer (100 mM phosphate buffer, pH 6.0 with 0.1 % PEG, 5 mM DTT and 1.5 mM EDTA). All assay mixtures contained a constant amount of DMSO, i.e. 5 %. Formation of fluorescent degradation product was continuously monitored at 380 nm ± 20 nm excitation and […] ± 10 nm emission wavelengths on Tecan Safire^2™ at 37°C. Mechanism and the constant of inhibition (Ki) of cathepsin B endopeptidase activity were determined using the graphical method according to Cornish-Bowden (Cornish-Bowden A: A Simple Graphical Method for Determining the Inhibition Constants of Mixed, Uncompetitive and Non-Competitive Inhibitors. Biochem J 1974, 137:143-4.) and using the SigmaPlot® 11, Enzyme Kinetics Module™ 1.3. Table I. Results of testing the compounds according to Formula (I) on cathepsin B endopeptidase activity.

MCF-10A neoT cells [2] = test: Extracellular DQ-collagen IV degradation, fluorescence intensity in medium; assay type: cell-based; details: 3 h, DQ-collagen IV 5 µg/ml
Experimental: Two experiments were set to differentiate between inhibition of intracellular and extracellular DQ-collagen IV degradation. Inhibition of extracellular DQ-collagen IV degradation was observed by monitoring the fluorescence intensity of degraded DQ-collagen IV in the medium in which MCF-10A neoT cells were grown. 5 × 10^4 MCF-10A neoT cells were plated into wells of a 96-well black plate and were allowed to attach over night. Cells were then incubated with 100 µl PBS containing 5-nitro-8-hydroxyquinoline, CA-074 or CA-074Me (10 µM) and DQ-collagen IV (5 µg/ml) for 3 h. Afterwards, the 80 µl of PBS was transferred into the empty wells and the fluorescence intensity was measured at 495 nm ± 5 nm excitation and 515 nm ± 5 nm emission wavelengths on Tecan Safire^2™. The experiment was performed in 8 parallels and DMSO was used as a control.

MCF-10A neoT cells [3] = test: Intracellular DQ-collagen IV degradation by flow cytometry; assay type: cell-based; details: 50 µM, shift in fluorescence intensity
Experimental: Inhibition of intracellular DQ-collagen IV degradation was observed by flow cytometry by a shift in fluorescence intensity. 5 × 10^4 MCF-10A neoT cells in complete medium were plated into the wells of a 24-well plate and allowed to attach over night. Afterwards, the medium was replaced with 500 µl of serum free medium with 5-nitro-8-hydroxyquinoline, CA-074 or CA-074Me (50 µM). After 2 h incubation the medium was again replaced with serum free medium containing inhibitors (50 µM) and DQ-collagen IV (5 µg/ml). DMSO was used as a control. For the experiment only viable cells were selected using propidium iodide. The measurements were performed on a FACS Calibur instrument (Beckton Dickinson, Inc.).

Cathepsin B [4] = biological target: T1, Cathepsin B; details: cited from earlier work; for less potent in vitro than parent inhibitor: esterified cell permeable derivatives versus E-64 and CA-074; for inhibit cathepsin B: background
Cathepsin B [5] = biological target: T1, Cathepsin B; test: Reversibility with active site probe DCG-04 (labelling, SDS-PAGE, blot); assay type: binding; details: 0.1, 1, 10 and 50 µM inhibitor, 1 h, then 2 µM DCG-04
Description: Second, the reversibility of 5-nitro-8-hydroxyquinoline was also studied with the active site probe DCG-04. DCG-04 is a derivative of an irreversible epoxysuccinic inhibitor of cysteine proteases E-64 with an additional biotin moiety which enables detection of covalently modified proteases with labelling intensity correlating with enzymatic activity (Greenbaum D, Medzihradszky KF, Burlingame A, Bogyo M: Epoxide electrophiles as activity-dependent cysteine protease profiling and discovery tools. Chem Biol 2000, 7: 569-81.). 1 µg of recombinant cathepsin B in 50 mM Tris, pH 5.5 containing 1 mM DTT, 5 mM MgCl2 and 250 mM sucrose was incubated with 0.1, 1, 10 in 50 µM 5-nitro-8-hydroxyquinoline (diluted from 10 mM DMSO stocks) for 1 h at room temperature. Samples were then labelled with 2 µM DCG-04 for an additional h at room temperature. After boiling in reducing sample buffer for 10 min samples were analyzed by 12.5 % SDS-PAGE and transferred to a nitrocellulose membrane. The latter was then blocked with 0.5 % Tween 20 in PBS overnight at 4 °C and incubated with 1 µg/ml streptavidin-horseradish peroxidase in 0.2 % Tween 20 in PBS for 1 h at room temperature. The membrane was washed five times with 0.2 % Tween 20 in PBS and the spots on the membrane were visualized with 0.5 mg/ml 3,3'-diaminobenzidine and 0.0005 % (v/v) H2O2 in 50 mM Tris, pH 7.5. […]

Cathepsin B [6] = biological target: T1, Cathepsin B; test: Reversibility by mass spectrometry (ESI-MS of cathepsin B after incubation and dialysis); assay type: binding; details: equimolar inhibitor, 1 h room temperature, dialysis
Experimental: Third, reversibility of 5-nitro-8-hydroxyquinoline was also checked with mass spectrometry. Cathepsin B (4.4 µM) was activated in the activation buffer for 5 min at 37 °C. Afterwards, an equimolar amount of the inhibitor was added to the enzyme and incubated for 1 h at room temperature. The mixture was dialyzed against water five times using Microcon Centrifugal Filter Devices YM-10 to avoid salt interferences and to remove unbound molecules of the test compound. Samples were then prepared by adding an equal volume of acetonitrile containing 0.1 % formic acid and analyzed with ESI-MS on an AutoSpec Q instrument. As a positive control CA-074 was used.

SMILES: O=[N+]([O-])c1cc(CN2CCCC(O)C2)c(O)c2ncccc12 (racemic) [Compound 8, 7-((3-Hydroxypiperidin-1-yl)methyl)-5-nitro-8-hydroxyquinoline]
- Ki (Cathepsin B [1]): 110 ± 3.1 µM

SMILES: CCCNC(=O)[C@H]1O[C@@H]1C(=O)N[C@H](C(=O)N1CCC[C@H]1C(=O)OC)[C@@H](C)CC [CA-074Me]
- inhibition of extracellular DQ-collagen IV degradation (MCF-10A neoT cells [2]; 10 µM): 33.8%
- inhibition of intracellular DQ-collagen IV degradation (MCF-10A neoT cells [3]): significantly inhibited
- less potent in vitro than parent inhibitor (Cathepsin B [4]): 100-1000 fold

SMILES: CCCNC(=O)[C@H]1O[C@@H]1C(=O)N[C@H](C(=O)N1CCC[C@H]1C(=O)O)[C@@H](C)CC [CA-074]
- intensity of spots (DCG-04 labelling) versus DMSO control (Cathepsin B [5]): concentration dependent loss of spot intensity
- change of mass of the enzyme (Cathepsin B [6]): 384 Da
- inhibition at 10 µM (MCF-10A neoT cells [2]; Homo sapiens, MCF-10A-neoT): 31.1%
- inhibition of intracellular DQ-collagen IV degradation (MCF-10A neoT cells [3]): only slightly inhibited; also recorded: did not
- inhibit cathepsin B (Cathepsin B [4]): nanomolar range

SMILES: O=[N+]([O-])c1cc(CN2CCOCC2)c(O)c2ncccc12 [Compound 2, 7-(Morpholinomethyl)-5-nitro-8-hydroxyquinoline]
- Ki (Cathepsin B [1]): 119 ± 4.2 µM

SMILES: O=[N+]([O-])c1cc(CN2CCCC2)c(O)c2ncccc12 [Compound 3, 7-(Pyrrolidinomethyl)-5-nitro-8-hydroxyquinoline]
- Ki (Cathepsin B [1]): 118 ± 3.1 µM

SMILES: CN1CCN(Cc2cc([N+](=O)[O-])c3cccnc3c2O)CC1 [Compound 4, 7-((4-Methylpiperazin-1-yl)methyl)-5-nitro-8-hydroxyquinoline]
- Ki (Cathepsin B [1]): 75.6 ± 4 µM

SMILES: O=[N+]([O-])c1cc(CN2CCC(O)CC2)c(O)c2ncccc12 [Compound 5, 7-((4-Hydroxypiperidin-1-yl)methyl)-5-nitro-8-hydroxyquinoline]
- Ki (Cathepsin B [1]): 130 ± 3.4 µM

SMILES: CC1CCN(Cc2cc([N+](=O)[O-])c3cccnc3c2O)CC1 [Compound 6, 7-((4-Methypiperidin-1-yl)methyl)-5-nitro-8-hydroxyquinoline]
- Ki (Cathepsin B [1]): 130 ± 3.5 µM

SMILES: O=C(O)C1CCN(Cc2cc([N+](=O)[O-])c3cccnc3c2O)CC1 [Compound 7, 7-((4-Carboxypiperidin-1-yl)methyl)-5-nitro-8-hydroxyquinoline]
- Ki (Cathepsin B [1]): 89 ± 3.3 µM

SMILES: CC(C)C[C@H](NC(=O)[C@H]1O[C@@H]1C(=O)O)C(=O)NCCCCN=C(N)N [Compound E-64]
- inhibit cathepsin B (Cathepsin B [4]): nanomolar range

SMILES: CCOC(=O)[C@H]1O[C@@H]1C(=O)N[C@@H](CC(C)C)C(=O)NCCC(C)C [Compound E-64d]
- less potent in vitro than parent inhibitor (Cathepsin B [4]): 100-1000 fold
